Laboratory results taken from patent US10858305B2, “Perillyl alcohol-3-bromopyruvate conjugate and methods of treating cancer” (NeOnc Technologies, Inc., priority 2016, dated 2020).
“Also recorded” adds a separate entry of the source.

Columns and labels:
[1] = molecular target: T1, GAPDH (Oryctolagus cuniculus, UniProt P46406); test: Mass spectrometry of purified GAPDH protein incubated with drug (cysteine modification); type: binding, rabbit; details: 60 μM drug, 15 minutes
T1 construct: Purified GAPDH protein (30 μg, 1 μg/μl) from rabbit muscle (ScienCell Research Laboratories); purchased ScienCell Research Laboratories; host or cells: rabbit muscle
T1 sequence (P46406 whole entry): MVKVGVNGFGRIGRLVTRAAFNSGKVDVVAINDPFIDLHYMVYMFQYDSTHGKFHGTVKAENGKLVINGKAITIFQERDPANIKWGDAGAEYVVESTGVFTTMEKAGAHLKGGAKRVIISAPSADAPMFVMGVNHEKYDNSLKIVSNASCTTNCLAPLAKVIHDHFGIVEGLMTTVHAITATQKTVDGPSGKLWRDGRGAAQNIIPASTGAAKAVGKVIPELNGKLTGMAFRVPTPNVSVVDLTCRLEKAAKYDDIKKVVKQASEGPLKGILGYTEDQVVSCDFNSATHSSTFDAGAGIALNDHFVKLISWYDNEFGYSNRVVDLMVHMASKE
Method: Direct interaction of NEO218 with different targets was analyzed by LC/MS analysis. (A) Purified rabbit GAPDH protein was incubated with 3-BP or NEO218 for 15 minutes, followed by LC/MS analysis. GAPDH protein contains 4 cysteines (Cys) at the indicated positions, and all four were identified as being modified with a pyruvate moiety in the case of 3-BP, and a pyruvate-perillyl alcohol moiety in the case of NEO218 (indicated by pyr). (B) Extracted ion chromatogram (XIC) of the reaction products of NEO218 and GSH restricted to mass over charge (m/z) values between 528 and 529. […] Location and relative size of the peak at 529.204 corresponds to the ^13C isotope peak of the reaction product. (C) Reaction of NAC with NEO218 yielded several products shown in the ion map (top panel). The co-eluting twin isotope at m/z 539 and 541 distributed equally (insert in top panel) and was selected for further analysis, as shown in the two chromatograms in the bottom panels.
Thirty microgram of purified GAPDH protein was incubated in vitro with 60 μM 3-BP for 15 minutes at 37° C. Mass spectrometrical analysis was then used to determine whether 3-BP could directly bind to the amino acid sequence of the enzyme. […]

[2] = system: HCT116 cells; test: MTT assay with or without antioxidants NAC or GSH; type: cell-based, human; details: HCT116, MTT after 24 hours
Method: (A) HCT116 cells were treated with 40 μM 3-BP or NEO218 in the presence or absence of 1 mM NAC, 1 mM GSH, or 50 mM methyl-pyruvate (or sodium pyruvate, which produced similar outcomes). Cell viability was determined 24 hours later by MTT assay. (B) HCT116 cells were treated with 30 or 100 μM 3-BP or NEO218. After 30 minutes, cell lysates were prepared and analyzed for GAPDH activity. (C) Lysates from non-drug-treated MDA-MB-231 cells were mixed with 3-BP or NEO218 in the presence or absence of NAC or GSH at the concentrations mentioned in A. After 1 hour of incubation, GAPDH activity was determined. GAPDH activity in the absence of drug treatment was set at 100% (corresponding to 0.06 units/min×10^6 cells).
Tumor cells were treated with either NAC or GSH, in combination with NEO218 or 3-BP. HCT116 cells were treated with increasing concentrations of NEO218 and 3-BP (individually), in the presence or absence of 5 mM NAC or 1 mM GSH. After 24 hours, cell viability was determined by MTT assay.

[3] = system: tumor cells (two cell lines, incl. MCF7/Dox); test: Colony formation assay (CFA), 24 hours drug exposure (FIG. 5); type: cell-based, human; details: colonies after ten to fifteen days
Method: The effect of NEO218 on tumor cell survival and colony formation relative to 3-BP, POH and 3-BP+POH was evaluated via the colony formation assay (CFA). Six hundred cells per culture well were seeded and exposed to increasing concentrations of NEO218, 3-BP, a mix of 3-BP+POH, or POH alone. After 24 hours, all drugs were removed from cells and fresh culture medium was added. Ten to fifteen days later, the surviving cells had formed colonies of descendants, which were stained and counted.

[4] = system: HCT116 cells; test: FACS analysis for annexin V and propidium iodide; type: cell-based, human; details: for incorporation of PI (necrosis) versus annexin V (apoptosis): 2, 4 or 8 hours of treatment; for earliest detection of shift to PI-positive quadrant after onset of treatment: HCT116, 30 μM; for PI-positive cells at 8 hours: HCT116, 8 hours
Method: (A) FACS analysis of HCT116 cells after treatment for 2, 4, or 8 hours with vehicle, 30 μM 3-BP, 30 μM NEO218, or 1 μM staurosporine (STS). […] (B) Western blot analysis of apoptotic markers. In the top section, MDA-MB-231 cells were treated with 30 μM NEO218 or 1 μM STS for various time points. In the lower section, HCT116 cells were treated with the indicated concentrations of 3-BP, NEO218, or STS for 16 hours. In all cases cell lysates were prepared and analyzed for the well-established apoptotic markers cleaved PARP, cleaved (i.e., activated) caspase 7 (cl. C-7), and phosphorylated (i.e., active) H2AX. Actin was used as a loading control. (C) HCT116 cells were pretreated with 50 μM Z-VAD-FMK for one hour, followed by the addition of increasing concentrations of 3-BP or NEO218. Cell viability was determined by MTT assay 24 hours later. Data points are averages from n=3.
In the absence of indications that apoptotic mechanisms played a significant role in cell death induced by NEO218, necrosis was investigated as a potential key mechanism. The distinction between apoptotic and necrotic cell death was made by measuring annexin V staining (a marker of apoptosis) and PI (propidium iodide) staining (a marker of necrosis) of drug-treated cells, in comparison to non-drug-treated cells (as a control). Measurements of annexin V and PI were done by FACS analysis after 2, 4, or 8 hours of treatment. Cells were treated with NEO218, 3-BP, and staurosporine (individually), and incorporation of propidium iodide (PI, a marker of necrotic cell death) or annexin V (a marker for apoptosis) was determined by fluorescence-activated cell sorting.
The results are organized in FIG. 8 as follows: no treatment (top row), 3-BP (second row), NEO218 (third row), and staurosporine (bottom row).
Characterization of cell death was performed by flow cytometry using the Alexa Fluor® 488 Annexin V/Dead Cell Apoptosis kit (Thermo Fisher Scientific). This kit contains recombinant, green fluorophore-conjugated annexin V, which reacts with apoptotic cells, and DNA-binding, red-fluorescent propidium iodide (PI), which is impermeant to live and apoptotic cells, but stains dead cells. The different cell populations can be distinguished by green fluorescence (apoptotic cells), red fluorescence (necrotic/dead cells), and no fluorescence (live cells) during flow cytometry with 488 nm laser excitation. Control or drug-treated cells were processed as per manufacturer's instructions, followed by flow cytometry of 10,000 cells per point with an LSR II (BD Biosciences, San Jose, Calif.) at the USC Flow Cytometry Core Facility.

SMILES: C=C(C)[C@@H]1CC=C(COC(=O)C(=O)CBr)CC1 [NEO218, 3-bromo-2-oxo-propionic acid 4-isopropenyl-cyclohex-1-enylmethyl ester]
- cysteine residues of GAPDH modified [1]: the same four residues revealed attachment of pyruvate-perillyl alcohol moieties
- effect of antioxidants NAC or GSH on drug-induced cell death [2]: antioxidant treatment similarly protected cells; also recorded: drug-induced cell death was completely prevented
- IC50 ([3]; Homo sapiens, MCF7-DOX, read-out: IC50 (cell survival and colony formation)): < 10 µM
- incorporation of PI (necrosis) versus annexin V (apoptosis) [4]: move straight from the bottom left quadrant to the upper right quadrant; also recorded: vigorous incorporation of PI, but very little annexin V
- time to initiation of cell death ([4]; FIG. 8 and LDH time course of FIG. 4): 1 to 2 h
- earliest detection of shift to PI-positive quadrant after onset of treatment [4]: 2 h
- PI-positive cells at 8 hours [4]: the majority of cells was PI-positive

SMILES: O=C(O)C(=O)CBr [3-BP, 3-bromopyruvate]
- cysteine residues of GAPDH modified [1]: Cysteines at amino acid positions 245 and 282 turned out to be pyruvylated; also recorded: all 4 cysteines were altered by the addition of pyruvate
- effect of antioxidants NAC or GSH on drug-induced cell death [2]: profound protection; also recorded: drug-induced cell death was completely prevented
- inhibition of colony formation, comparison [3]: substantially less potent
- incorporation of PI (necrosis) versus annexin V (apoptosis) [4]: vigorous incorporation of PI, but very little annexin V
- incorporation of PI (necrosis) versus annexin V (apoptosis) ([4]; listed as 3-GP): move straight from the bottom left quadrant to the upper right quadrant
- earliest detection of shift to PI-positive quadrant after onset of treatment [4]: 2 h
- PI-positive cells at 8 hours [4]: the majority of cells was PI-positive
